Measured values taken from patent US11969419B2, “Method of treating cancer” (Exelixis, Inc., priority 2010, dated 2024).

Tests used:
[1] = system: endothelial cells; details: cited from earlier work
[2] = system: pancreatic neuroendocrine tumor model; details: murine pancreatic neuroendocrine tumor model; cited from earlier work
[3] = system: tumor cells; details: cited from earlier work
[4] = phase 1 clinical study; cited from earlier work
[5] = system: castration-resistant prostate cancer (CRPC) with bone metastases; test: Adaptive phase 2 trial (NCT00940225), case studies of the first three CRPC patients with bone metastases, Compound 1 100 mg; assay type: in vivo, human; details: for Bone scan (best response) / Pain (best response): preliminary best response
Experimental: In 2000, local disease recurrence was treated with radiation therapy. […] CAB with leuprolide and bicalutanide was initiated. […] All patients provided informed consent before study screening.

[6] = system: xenograft tumor models; details: cited from earlier work
[7] = three metastatic CRPC patients, summary

For `COc1cc2nccc(Oc3ccc(NC(=O)C4(C(=O)Nc5ccc(F)cc5)CC4)cc3)c2cc1OC` [Compound 1, N-(4-{[6,7-bis(methyloxy)quinolin-4-yl]oxy}phenyl)-N′-(4-fluorophenyl)cyclopropane-1,1-dicarboxamide], the “Apoptosis of endothelial cells” value [1] is listed as “rapidly induces apoptosis”, the Overall survival [2] is listed as “substantially improves” and the “Tumor invasiveness and metastasis” value [2] is listed as “significantly reduces”. For the same molecule, the “Apoptosis of tumor cells” value [3] was “rapidly induces apoptosis”, the “Most commonly observed adverse events” value [4] was “fatigue, diarrhea, anorexia, rash, and palmar-plantar erythrodysesthesia” and the Tolerability [4] was “generally well-tolerated”. For the same molecule, the “Bone scan: radiotracer uptake by bone metastases” value ([5]; Patient 1, Week 6) was “dramatic decrease in radiotracer uptake”, the “CT scan response category” value ([5]; Patient 1, Week 6) was “partial response (PR)” and the “CT scan: decrease in measurable target lesions” value ([5]; Patient 1, Week 6) was 33%. The “Bone lesions on bone scan” value ([5]; Patient 1, Week 12, stable through Week 18) was “near complete resolution of bone lesions”, the “Adverse event leading to withdrawal” value ([5]; Patient 1, Week 18) was “Grade 3 diarrhea” and the Bone pain ([5]; Patient 1, four weeks after start) was “significant reduction in bone pain”. The “Bone scan (best response)” value ([5]; Patient 1) was “Complete resolution”, the “Pain (best response)” value ([5]; Patient 1) was “Improvement” and the Bone pain ([5]; Patient 2, Week 4) was “reduction in bone pain”. The “Bone scan: radiotracer uptake by bone lesions” value ([5]; Patient 2, Week 6) was “slight flair in radiotracer uptake”, the “CT scan: decrease in target lesions” value ([5]; Patient 2, Week 6) was 13% and the “Bone scan: radiotracer uptake” value ([5]; Patient 2, Week 12) was “substantial reduction of radiotracer uptake”. For the same molecule, the “Bone scan (best response)” value ([5]; Patient 2) was “Improvement”, the “Pain (best response)” value ([5]; Patient 2) was “Pain-free” and the “Bone scan: radiotracer uptake” value ([5]; Patient 3, Week 6) was “dramatic reduction in radiotracer uptake”. The “CT scan: decrease in measurable target lesions” value ([5]; Patient 3, Week 6) was 43%, the “Bone lesions on bone scan” value ([5]; Patient 3, Week 12) was “complete resolution of bone lesions” and the Pain ([5]; Patient 3, after three weeks) was “complete resolution of pain”. For the same molecule, the “Bone scan (best response)” value ([5]; Patient 3) was “Near resolution”, the “Pain (best response)” value ([5]; Patient 3) was “Pain-free” and the Bone pain ([5]; all three patients, discussion) was “substantial reductions in bone pain”. The Soft tissue lesions ([5]; all three patients, discussion) was “response or stabilization”, the “Uptake of radiotracer on bone scan” value ([5]; all three patients, discussion) was “striking decrease” and the Bone lesions [5, 7] was “near complete resolution of bone lesions”. The Bone pain [5, 7] was “marked reduction”, the Measurable disease [5, 7] was “reduction in measurable disease” and the “Total serum alkaline phosphatase (tALP) levels” value [5, 7] was “marked reduction”. The Tumor regression [6] was “causes tumor regression”.
